Experimental data from patent US6613795B2, “Enantiomerically pure basic arylcycloalkylhydroxycarboxylic esters, processes for their preparation and their use in medicaments” (priority 1996, dated 2003).
pKi: −log10 of the molar value.

What was measured:
M2 receptors = molecular target: T1, M2 receptors (Rattus norvegicus, UniProt P10980); test: [3H]-NMS binding studies on M2 receptors from preparations of rat hearts
T1 construct: M2 receptors from preparations of rat hearts; from tissue; host or cells: rat heart preparations
T1 sequence (P10980 1-466): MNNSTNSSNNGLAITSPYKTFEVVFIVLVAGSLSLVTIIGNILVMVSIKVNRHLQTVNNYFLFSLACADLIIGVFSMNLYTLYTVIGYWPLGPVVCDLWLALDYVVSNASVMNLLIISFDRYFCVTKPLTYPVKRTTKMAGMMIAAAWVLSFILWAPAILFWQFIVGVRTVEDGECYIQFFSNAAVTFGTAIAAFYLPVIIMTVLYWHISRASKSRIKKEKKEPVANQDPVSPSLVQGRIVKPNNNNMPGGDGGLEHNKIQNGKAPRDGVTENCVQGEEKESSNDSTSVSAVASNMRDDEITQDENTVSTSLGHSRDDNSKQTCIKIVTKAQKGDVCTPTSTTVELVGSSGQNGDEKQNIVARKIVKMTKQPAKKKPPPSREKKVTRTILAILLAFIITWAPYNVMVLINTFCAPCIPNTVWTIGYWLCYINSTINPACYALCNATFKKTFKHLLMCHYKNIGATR
From the text: c pKi values from [^3H]-NMS binding studies on M2 receptors from preparations of rat hearts

M2 = test: functional experiments on guinea pig atrium (GPA); format: cell-based
From the text: a pA2 and pEC50 values from functional experiments on rabbit vas deferens, guinea pig atrium and guinea pig ileum.

| SMILES | pKi (M2 receptors) | PA2 GPA (M2) (M2) |
| --- | --- | --- |
| C[N+]1(C)CC[C@H](OC(=O)[C@@](O)(c2ccccc2)C2CCCC2)C1 [Ia, (3S,2′S)-3-[(cyclopentylhydroxyphenylacetyl)oxy]-1,1-dimethylpyrrolidinium iodide] | 7.88 | 7.92 |
| C[N+]1(C)CC[C@H](OC(=O)[C@](O)(c2ccccc2)C2CCCC2)C1 [Ib, (3S,2′R)-3-[(cyclopentylhydroxyphenylacetyl)oxy]-1,1-dimethylpyrrolidinium iodide] | 9.74 | – |
| C[N+]1(C)CC[C@@H](OC(=O)[C@](O)(c2ccccc2)C2CCCC2)C1 [Ic, (3R,2′R)-3-[(cyclopentylhydroxyphenylacetyl)oxy]-1,1-dimethylpyrrolidinium iodide] | – | 9.43 |
| C[N+]1(C)CC[C@@H](OC(=O)[C@@](O)(c2ccccc2)C2CCCC2)C1 [Id, (3R,2′S)-3-[(cyclopentylhydroxyphenylacetyl)oxy]-1,1-dimethylpyrrolidinium iodide] | 9.00 | 8.69 |
